Where two headings read alike, the source gives them in different places.
How the values were obtained:
[1] = molecular target: T1, human B1R receptor (hB1R) (Homo sapiens, UniProt P46663); experiment: FLIPR Ca2+ assay on hB1R-transfected CHO K1 cells, antagonistic action; format: cell-based
T1 construct: host or cells: CHO K1 cells
T1 sequence (P46663 1-353): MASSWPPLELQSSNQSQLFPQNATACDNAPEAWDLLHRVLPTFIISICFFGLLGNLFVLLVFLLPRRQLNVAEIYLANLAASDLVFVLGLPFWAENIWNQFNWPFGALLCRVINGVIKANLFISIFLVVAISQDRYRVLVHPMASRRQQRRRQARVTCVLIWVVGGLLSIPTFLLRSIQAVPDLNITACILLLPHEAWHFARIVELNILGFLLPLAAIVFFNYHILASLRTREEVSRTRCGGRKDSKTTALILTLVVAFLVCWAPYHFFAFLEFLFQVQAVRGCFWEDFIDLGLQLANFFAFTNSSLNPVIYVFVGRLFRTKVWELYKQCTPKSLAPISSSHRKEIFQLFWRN

[2] = molecular target: T2, B1R receptor of the rat (rB1R) (Rattus norvegicus, UniProt P97583); experiment: FLIPR Ca2+ assay on rB1R-transfected CHO K1 cells, antagonistic action; format: cell-based
T2 construct: host or cells: CHO K1 cells
T2 sequence (P97583 1-337): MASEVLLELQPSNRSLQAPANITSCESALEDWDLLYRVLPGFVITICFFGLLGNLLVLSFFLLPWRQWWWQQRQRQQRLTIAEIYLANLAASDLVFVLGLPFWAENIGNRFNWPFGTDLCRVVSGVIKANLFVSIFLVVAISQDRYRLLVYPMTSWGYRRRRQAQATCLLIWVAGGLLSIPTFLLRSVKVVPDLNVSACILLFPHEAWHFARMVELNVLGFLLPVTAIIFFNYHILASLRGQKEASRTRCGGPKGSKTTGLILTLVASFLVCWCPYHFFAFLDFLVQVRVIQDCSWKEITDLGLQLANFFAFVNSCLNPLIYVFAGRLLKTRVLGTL

[3] = CHO-K1, 10 μM test substance, agonist Lys-Des-Arg9-bradykinin 0.5 nM, % of maximum achievable inhibition, read-out: hB1R [10 μM] % inhibition
[4] = CHO-K1, 10 μM test substance, agonist Des-Arg9-bradykinin 100 nM, % of maximum achievable inhibition, read-out: rB1R [10 μM] % inhibition

| SMILES | inhibition at 10 µM [1, 3] | inhibition at 10 µM [2, 4] | other results |
| --- | --- | --- | --- |
| COc1cc(C)c(S(=O)(=O)N2CCCC2COCC(=O)NC2CCC(Cc3ccccc3)(N3CCOCC3)CC2)c(C)c1 (stereo not shown) [Compound 159, N-(4-benzyl-4-morpholinocyclohexyl)-2-((1-(4-methoxy-2,6-dimethylphenylsulfonyl)pyrrolidin-2-yl)methoxy)acetamide] | 45% | 98% | – |
| COc1cc(C)c(S(=O)(=O)N2CCCCC2COCC(=O)N(C)CC2CCC(Cc3ccccc3)(N3CCCC3)CC2)c(C)c1 (stereo not shown) [Compound 78, N-((4-benzyl-4-(pyrrolidin-1-yl)cyclohexyl)methyl)-2-((1-(4-methoxy-2,6-dimethylphenylsulfonyl)piperidin-2-yl)methoxy)-N-methylacetamide] | 101% | 99% | – |
| COc1cc(C)c(S(=O)(=O)N2CCCC(OCC(=O)NC3CCC(Cc4ccccc4)(N4CCOCC4)CC3)C2)c(C)c1 (stereo not shown) [Compound 190, N-(4-benzyl-4-morpholinocyclohexyl)-2-(1-(4-methoxy-2,6-dimethylphenylsulfonyl)piperidin-3-yloxy)acetamide] | 90% | 57% | – |
| CN(CCC1CCC(CCc2ccccc2)(N(C)C)CC1)C(=O)CC(NS(=O)(=O)c1ccc2ccccc2c1)c1ccccc1 (stereo not shown) [Compound 102, N-(2-(4-(dimethylamino)-4-phenethylcyclohexyl)ethyl)-N-methyl-3-(naphthalene-2-sulfonamido)-3-phenylpropanamide] | 97% | 85% | – |
| CN(CC1CCC(c2ccccc2)(N2CCCC2)CC1)C(=O)CC(NS(=O)(=O)c1ccc2ccccc2c1)c1ccccc1 (stereo not shown) [Compound 92, N-methyl-3-(naphthalene-2-sulfonamido)-3-phenyl-N-((4-phenyl-4-(pyrrolidin-1-yl)cyclohexyl)methyl)propanamide] | 101% | 95% | – |
| COc1cc(C)c(S(=O)(=O)N2CCCCC2COCC(=O)N(C)CC2CCC(Cc3ccccc3)(N3CCN(C)CC3)CC2)c(C)c1 (stereo not shown) [Compound 143, N-((4-benzyl-4-(4-methylpiperazin-1-yl)cyclohexyl)methyl)-2-((1-(4-methoxy-2,6-dimethylphenylsulfonyl)piperidin-2-yl)methoxy)-N-methylacetamide] | 103% | 111% | – |
| Cc1cc(S(=O)(=O)N2CCCCC2CCC(=O)N(C)CC2CCC(Cc3ccccc3)(N3CCCC3)CC2)c(C)cc1Cl (stereo not shown) [Compound 129, N-((4-benzyl-4-(pyrrolidin-1-yl)cyclohexyl)methyl)-3-(1-(4-chloro-2,5-dimethylphenylsulfonyl)piperidin-2-yl)-N-methylpropanamide] | 104% | 52% | – |
| CN1CCN(C2(Cc3ccccc3)CCC(CN(C)C(=O)COC3CCCN(S(=O)(=O)c4c(Cl)cc(Cl)cc4Cl)C3)CC2)CC1 (stereo not shown) [Compound 175, N-((4-benzyl-4-(4-methylpiperazin-1-yl)cyclohexyl)methyl)-N-methyl-2-(1-(2,4,6-trichlorophenylsulfonyl)piperidin-3-yloxy)acetamide] | 97% | 77% | – |
| CN(CC1CCC(Cc2ccccc2)(N2CCCC2)CC1)C(=O)CC1CCCCN1S(=O)(=O)c1cccc(C(F)(F)F)c1 (stereo not shown) [Compound 94, N-((4-benzyl-4-(pyrrolidin-1-yl)cyclohexyl)methyl)-N-methyl-2-(1-(3-(trifluoromethyl)phenylsulfonyl)piperidin-2-yl)acetamide] | 64% | 93% | – |
| CN(CCC1CCC(Cc2ccccc2)(N(C)C)CC1)C(=O)COCC1CCc2ccccc2N1S(=O)(=O)c1ccc(Cl)c(Cl)c1 (stereo not shown) [Compound 61, N-(2-(4-benzyl-4-(dimethylamino)cyclohexyl)ethyl)-2-((1-(3,4-dichlorophenylsulfonyl)-1,2,3,4-tetrahydroquinolin-2-yl)methoxy)-N-methylacetamide] | 49% | 100% | – |
| COc1cc(C)c(S(=O)(=O)N(C)CCOCC(=O)N(C)CCC2CCC(c3ccccc3)(N(C)C)CC2)c(C)c1 (stereo not shown) [Compound 72, N-(2-(4-(dimethylamino)-4-phenylcyclohexyl)ethyl)-2-(2-(4-methoxy-N,2,6-trimethylphenylsulfonamido)ethoxy)-N-methylacetamide] | 103% | 99% | – |
| COc1cc(C)c(S(=O)(=O)N(C)CCOCC(=O)N(C)CCC2CCC(c3cccnc3)(N(C)C)CC2)c(C)c1 (stereo not shown) [Compound 207, N-(2-(4-(Dimethylamino)-4-(pyridin-3-yl)cyclohexyl)ethyl)-2-(2-(4-methoxy-N,2,6-trimethylphenylsulfonamido)ethoxy)-N-methylacetamide] | 100% | 101% | – |
| COc1cc(C)c(S(=O)(=O)N(C)CCOCC(=O)N2CCC(c3cccc(F)c3)(N3CCN(C)CC3)CC2)c(C)c1 [Compound 44, N-(2-(2-(4-(3-fluorophenyl)-4-(4-methylpiperazin-1-yl)piperidin-1-yl)-2-oxoethoxy)ethyl)-4-methoxy-N,2,6-trimethylbenzenesulfonamide] | – | – | hB1R [10 μM] % inhibition ([1]; 10 μM test substance, agonist Lys-Des-Arg9-bradykinin 0.5 nM, % of maximum achievable inhibition): 102%; rB1R [10 μM] % inhibition ([2]; 10 μM test substance, agonist Des-Arg9-bradykinin 100 nM, % of maximum achievable inhibition): 101% |
| O=C(CC1c2ccccc2CCN1S(=O)(=O)c1ccc(Cl)c(Cl)c1)NC1CCC(Cc2ccccc2)(N2CCCCC2)CC1 (stereo not shown) [Compound 15, N-(4-benzyl-4-(piperidin-1-yl)cyclohexyl)-2-(2-(3,4-dichlorophenylsulfonyl)-1,2,3,4-tetrahydroisoquinolin-1-yl)acetamide] | 55% | 82% | – |
| COc1cc(C)c(S(=O)(=O)N2CCC(OCC(=O)NC3CCC(Cc4ccccc4)(N4CCCC4)CC3)C2)c(C)c1 (stereo not shown) [Compound 166, N-(4-benzyl-4-(pyrrolidin-1-yl)cyclohexyl)-2-(1-(4-methoxy-2,6-dimethylphenylsulfonyl)pyrrolidin-3-yloxy)acetamide] | 92% | 90% | – |
| CN(CCC1CCC(c2ccccc2)(N2CCCC2)CC1)C(=O)CC(NS(=O)(=O)c1ccc2ccccc2c1)c1ccccc1 (stereo not shown) [Compound 40, N-methyl-3-(naphthalene-2-sulfonamido)-3-phenyl-N-(2-(4-phenyl-4-(pyrrolidin-1-yl)cyclohexyl)ethyl)propanamide] | 103% | 101% | – |
| O=C(CC1c2ccccc2CCN1S(=O)(=O)c1ccc(Cl)c(Cl)c1)NC1CCC(Cc2ccccc2)(N2CCCCCC2)CC1 (stereo not shown) [Compound 16, N-(4-(azepan-1-yl)-4-benzylcyclohexyl)-2-(2-(3,4-dichlorophenylsulfonyl)-1,2,3,4-tetrahydroisoquinolin-1-yl)acetamide] | 91% | 80% | – |
| CN1CCN(C2(c3cccc(F)c3)CCN(C(=O)CCCC3CCCCN3S(=O)(=O)c3cccc4ccccc34)CC2)CC1 (stereo not shown) [Compound 215, 1-(4-(3-Fluorophenyl)-4-(4-methylpiperazin-1-yl)piperidin-1-yl)-4-(1-(naphthalen-1-ylsulfonyl)piperidin-2-yl)butan-1-one] | – | – | inhibition at 10 µM ([1]; CHO-K1, read-out: hB1R [10 μM] % inhibition): 100%; inhibition at 10 µM ([2]; CHO-K1, read-out: rB1R [10 μM] % inhibition): 100% |
| COc1cc(C)c(S(=O)(=O)N(CCOCC(=O)N2CCC(c3cccc(F)c3)(N3CCN(C)CC3)CC2)c2ccccc2)c(C)c1 [Compound 219, N-(2-(2-(4-(3-Fluorophenyl)-4-(4-methylpiperazin-1-yl)piperidin-1-yl)-2-oxoethoxy)ethyl)-4-methoxy-2,6-dimethyl-N-phenylbenzenesulfonamide] | – | 61% | – |
| COc1cc(C)c(S(=O)(=O)N(C)CCOCC(=O)N2CCC(c3cccc(F)c3)(N3CCN(C)CC3)CC2)c(C)c1C [Compound 224, N-(2-(2-(4-(3-Fluorophenyl)-4-(4-methylpiperazin-1-yl)piperidin-1-yl)-2-oxoethoxy)ethyl)-4-methoxy-N,2,3,6-tetramethylbenzenesulfonamide] | – | 100% | – |
| COc1cc(C)c(S(=O)(=O)N(CCOCC(=O)N2CCC(c3cccc(F)c3)(N3CCN(C)CC3)CC2)Cc2ccccc2)c(C)c1 [Compound 218, N-Benzyl-N-(2-(2-(4-(3-fluorophenyl)-4-(4-methylpiperazin-1-yl)piperidin-1-yl)-2-oxoethoxy)ethyl)-4-methoxy-2,6-dimethylbenzenesulfonamide] | – | 101% | – |
| COc1cc(C)c(S(=O)(=O)N2c3ccccc3CCC2COCC(=O)N2CCC(c3cccc(F)c3)(N3CCN(C)CC3)CC2)c(C)c1 (stereo not shown) [Compound 220, 1-(4-(3-Fluorophenyl)-4-(4-methylpiperazin-1-yl)piperidin-1-yl)-2-((1-(4-methoxy-2,6-dimethylphenylsulfonyl)-1,2,3,4-tetrahydroquinolin-2-yl)methoxy)ethanone] | – | 97% | – |

— US20090253669A1, “Substituted Sulfonamide Compounds” (GRUENENTHAL GmbH, priority 2008, published 2009)
